Data from patent US4272437A, “Antibacterial agents, and 4-thio azetidinone intermediates” (priority 1979, dated 1981).
Converted amounts (≈) assume the structure as drawn. Read-outs that look alike come from different tables or passages of the source.

What was measured:
[1] = stability of isolated product (light, handling); format: physicochemical
Str. pneumoniae A-9585 = experiment: MIC, tube dilution, Streptococcus pneumoniae A9585; format: cell-based; conditions: Streptococcus pneumoniae, A9585, Str. pneumoniae A9585; overnight 37° C., Nutrient Broth; read-out: Minimum Inhibitory Concentration (M.I.C.)
Excerpt: (§1) Representative compounds of the present invention were subjected to in vitro antibiotic screening against a variety of microorganisms.

Str. pyogenes A-9604 = experiment: MIC, tube dilution, Streptococcus pyogenes A9604; format: cell-based; conditions: Streptococcus pyogenes, A9604, Str. pyogenes A9604; overnight 37° C., Nutrient Broth; read-out: Minimum Inhibitory Concentration (M.I.C.)
Excerpt: as §1

Staph. aureus A-9537 = experiment: MIC, tube dilution, Staphylococcus aureus A9537; format: cell-based; conditions: Staphylococcus aureus, A9537, Staph. aureus A9537; overnight 37° C., Nutrient Broth; read-out: Minimum Inhibitory Concentration (M.I.C.)
Excerpt: as §1

[2] = tested on: Staph. aureus A-9537 and 50% serum; experiment: MIC, tube dilution, Staph. aureus A9537 + 50% serum; format: cell-based, Staphylococcus aureus; conditions: Staphylococcus aureus, overnight 37° C., read-out: Minimum Inhibitory Concentration (M.I.C.)
Excerpt: as §1

[3] = tested on: Staph. aureus (Pen-Res) A-9606; experiment: MIC, tube dilution, Staphylococcus aureus A9606 (Pen-Res); format: cell-based; conditions: Staphylococcus aureus, Staph. aureus A9606 (Pen-Res); overnight 37° C.; read-out: Minimum Inhibitory Concentration (M.I.C.)
Excerpt: as §1

[4] = tested on: Staph. aureus (Meth-Res) A-15097; experiment: MIC, tube dilution, Staphylococcus aureus A15097 (Meth-Res); format: cell-based; conditions: Staphylococcus aureus, overnight 37° C.
Excerpt: as §1

Str. faecalis A-20688 = experiment: MIC, tube dilution, Streptococcus faecalis A20688; format: cell-based; conditions: Enterococcus faecalis, A20688, Str. faecalis A20688; overnight 37° C.; read-out: Minimum Inhibitory Concentration (M.I.C.)
Excerpt: as §1

E. coli A-15119 = experiment: MIC, tube dilution, Escherichia coli A15119; format: cell-based; conditions: Escherichia coli, A15119, E. coli A15119; overnight 37° C.; read-out: Minimum Inhibitory Concentration (M.I.C.)
Excerpt: as §1

E. coli A-20341-1 = experiment: MIC, tube dilution, Escherichia coli A20341-1; format: cell-based
Excerpt: as §1

K. pneumoniae A-15130 = experiment: MIC, tube dilution, Klebsiella pneumoniae A15130; format: cell-based; conditions: Klebsiella pneumoniae, A15130, K. pneumoniae A15130; overnight 37° C.; read-out: Minimum Inhibitory Concentration (M.I.C.)
Excerpt: as §1

[5] = tested on: Klebsiella species A20468; experiment: MIC, tube dilution, Klebsiella species A20468; format: cell-based; conditions: Klebsiella species (K. pneumoniae) A20468; overnight 37° C.; read-out: Minimum Inhibitory Concentration (M.I.C.)
Excerpt: as §1

Pr. mirabilis A-9900 = experiment: MIC, tube dilution, Proteus mirabilis A9900; format: cell-based; conditions: Proteus mirabilis, A9900, Proteus mirabilis A9900; overnight 37° C.; read-out: Minimum Inhibitory Concentration (M.I.C.)
Excerpt: as §1

Pr. morganii A-15153 = experiment: MIC, tube dilution, Proteus morganii A15153; format: cell-based; conditions: Morganella morganii, A15153, Proteus morganii A15153; overnight 37° C.; read-out: Minimum Inhibitory Concentration (M.I.C.)
Excerpt: as §1

Ser. marcescens A-20019 = experiment: MIC, tube dilution, Serratia marcescens A20019; format: cell-based; conditions: Serratia marcescens, A20019, Serratia marcescens A20019; overnight 37° C.; read-out: Minimum Inhibitory Concentration (M.I.C.)
Excerpt: as §1

Ent. cloacae A-9659 = experiment: MIC, tube dilution, Enterobacter cloacae A9659; format: cell-based; conditions: Enterobacter cloacae, A9659, Enterobacter cloacae A9659; overnight 37° C.; read-out: Minimum Inhibitory Concentration (M.I.C.)
Excerpt: as §1

Ent. cloacae A-9656 = experiment: MIC, tube dilution, Enterobacter cloacae A9656; format: cell-based; conditions: overnight 37° C., read-out: Minimum Inhibitory Concentration (M.I.C.)
Excerpt: as §1

Ps. aeruginosa A-9843A = experiment: MIC, tube dilution, Pseudomonas aeruginosa A9843A; format: cell-based; conditions: Pseudomonas aeruginosa, A9843A, read-out: Minimum Inhibitory Concentration (M.I.C.), Pseudomonas aeruginosa A9843A; overnight 37° C.
Excerpt: as §1

Ps. aeruginosa A-21213 = experiment: MIC, tube dilution, Pseudomonas aeruginosa A21213; format: cell-based; conditions: overnight 37° C., read-out: Minimum Inhibitory Concentration (M.I.C.)
Excerpt: as §1

Proteus rettgeri A21203 = experiment: MIC, tube dilution, Proteus rettgeri A21203; format: cell-based; conditions: Providencia rettgeri, overnight 37° C., read-out: Minimum Inhibitory Concentration (M.I.C.)
Excerpt: as §1

[6] = tested on: Hemophilus influenzae A9833; experiment: MIC, tube dilution, Hemophilus influenzae A9833; format: cell-based; conditions: Haemophilus influenzae, A9833, read-out: Minimum Inhibitory Concentration (M.I.C.)
Excerpt: as §1

S. aureus A9537 = experiment: In vivo protection of mice, lethal infection with S. aureus A9537; conditions: IM, 2 treatments; for ED50: Staphylococcus aureus, A9537, im, read-out: PD50
Protocol: (§2) Representative compounds of the present invention were also tested in vivo in mice and their PD50 (dose of compound in mg/kg required to protect 50% of the treated mice against an otherwise lethal infection of a micro-organism) values determined with respect to the test organisms shown below.

[7] = Mouse blood levels after intramuscular administration; format: in vivo; conditions: average of 6 mice, read-out: Mouse blood level
Protocol: Mouse blood levels after intramuscular administration of representative compounds of the present invention were determined and are reported in the table below.

Proteus vulgaris A21559 = experiment: MIC, tube dilution, Proteus vulgaris A21559; format: cell-based; conditions: Proteus vulgaris, A21559, Proteus vulgaris A21559; overnight 37° C.; read-out: Minimum Inhibitory Concentration (M.I.C.)
Excerpt: as §1

[8] = tested on: Providencia stuartii A21205; experiment: MIC, tube dilution, Providencia stuartii (Pr. rettgeri) A21205; format: cell-based; conditions: Providencia stuartii, A21205, Providencia stuartii (Pr. rettgeri) A21205; overnight 37° C.; read-out: Minimum Inhibitory Concentration (M.I.C.)
Excerpt: as §1

S. aureus A9606 = experiment: In vivo protection of mice, lethal infection with S. aureus A9606; conditions: Staphylococcus aureus, IM, 2 treatments, 8 × 10^8 organisms, read-out: PD50
Protocol: as §2

K. pneumoniae A15130 = experiment: In vivo protection of mice, lethal infection with K. pneumoniae A15130; conditions: Klebsiella pneumoniae, IM, 2 treatments, 1.2 × 10^3 organisms, read-out: PD50
Protocol: as §2

S. pneumoniae A9585 = experiment: In vivo protection of mice, lethal infection with S. pneumoniae A9585; conditions: Streptococcus pneumoniae, A9585, im, 2 treatments, read-out: PD50
Protocol: as §2

S. pyogenes A9604 = experiment: In vivo protection of mice, lethal infection with S. pyogenes A9604; conditions: Streptococcus pyogenes, A9604, im, 2 treatments, read-out: PD50
Protocol: as §2

[9] = tested on: Gram-negative and Gram-positive organisms; conditions: literature; cited from earlier work
β-lactamases = conditions: literature; cited from earlier work
[10] = in vitro and in vivo, literature; cited from earlier work
[11] = Escherichia coli, A203411, E. coli A20341-1; overnight 37° C.; read-out: Minimum Inhibitory Concentration (M.I.C.)

| SMILES | stability [1] | MIC (Str. pneumoniae A-9585) | MIC (Str. pyogenes A-9604) | MIC (Staph. aureus A-9537) | MIC [2] | MIC [3] | MIC (Str. faecalis A-20688) | MIC (E. coli A-15119) | MIC (K. pneumoniae A-15130) | MIC [5] | MIC (Pr. mirabilis A-9900) | MIC (Pr. morganii A-15153) | MIC (Ser. marcescens A-20019) | MIC (Ent. cloacae A-9659) | MIC (Ps. aeruginosa A-9843A) | MIC (Ps. aeruginosa A-21213; Pseudomonas aeruginosa A21213) | MIC (E. coli A-20341-1; [11]) | also measured |
| --- | --- | --- | --- | --- | --- | --- | --- | --- | --- | --- | --- | --- | --- | --- | --- | --- | --- | --- |
| CC(=O)OC[C@H]1C(=O)N2C(C(=O)O)=C(CN)S[C@H]12 (relative stereo) [cis 6-Acetoxymethyl-2-aminomethylpenem-3-carboxylic Acid] | unstable | – | – | – | – | – | – | – | – | – | – | – | – | – | – | – | – | – |
| NCCC1=C(C(=O)O)N2C(=O)CC2S1 (centres unmarked) [Example 24, 2-Aminoethylpenem-3-carboxylic Acid] | – | 2 µg/mL (≈ 9.34 µM) | 2 µg/mL (≈ 9.34 µM) | 4 µg/mL (≈ 18.7 µM) | 16 µg/mL | 8 µg/mL (≈ 37.3 µM) | 63 µg/mL (≈ 294 µM) | 32 µg/mL (≈ 149 µM) | > 125 µg/mL | 125 µg/mL (≈ 583 µM) | 63 µg/mL (≈ 294 µM) | 125 µg/mL (≈ 583 µM) | 63 µg/mL (≈ 294 µM) | 63 µg/mL (≈ 294 µM) | 125 µg/mL (≈ 583 µM) | > 125 µg/mL | – | MIC ([4]; read-out: Minimum Inhibitory Concentration (M.I.C.), Staph. aureus A15097 (Meth-Res)): > 125 µg/mL; MIC (E. coli A-20341-1; Escherichia coli, A203411; E. coli A20341-1; overnight 37° C.; read-out: Minimum Inhibitory Concentration (M.I.C.)): 125 µg/mL (≈ 583 µM); MIC (Ent. cloacae A-9656; Enterobacter cloacae A9656): 125 µg/mL (≈ 583 µM); MIC (Proteus rettgeri A21203; Proteus rettgeri A21203): 125 µg/mL (≈ 583 µM); MIC [6]: > 125 µg/mL; ED50 (S. aureus A9537; 1 × 10^6 organisms): 0.63 mg/kg; concentration at 10 min ([7]; 10 minutes after IM 40 mg/kg): 51400 ng/mL; concentration at 20 min ([7]; 20 minutes after IM 40 mg/kg): 37100 ng/mL; concentration at 0.5 h ([7]; 30 minutes after IM 40 mg/kg): 21800 ng/mL; concentration at 0.75 h ([7]; 45 minutes after IM 40 mg/kg): 9400 ng/mL; concentration at 1 h ([7]; 60 minutes after IM 40 mg/kg): 5000 ng/mL; concentration at 1.5 h ([7]; 90 minutes after IM 40 mg/kg): < 3100 ng/mL; concentration at 2 h ([7]; 120 minutes after IM 40 mg/kg): < 3100 ng/mL |
| NC1CC1C1=C(C(=O)O)N2C(=O)CC2S1 (stereo not drawn) [Example 99, 2-(trans-2-Aminocyclopropyl)-penem-3-carboxylic Acid] | suspected to be very light sensitive | 1 µg/mL (≈ 4.42 µM) | 1 µg/mL (≈ 4.42 µM) | 1 µg/mL (≈ 4.42 µM) | 16 µg/mL | 4 µg/mL (≈ 17.7 µM) | 63 µg/mL (≈ 278 µM) | 8 µg/mL (≈ 35.4 µM) | 32 µg/mL (≈ 141 µM) | > 63 µg/mL | 8 µg/mL (≈ 35.4 µM) | 16 µg/mL (≈ 70.7 µM) | 16 µg/mL (≈ 70.7 µM) | 16 µg/mL (≈ 70.7 µM) | > 63 µg/mL | – | 63 µg/mL (≈ 278 µM) | MIC ([4]; Staph. aureus A15097 (Meth-Res), read-out: Minimum Inhibitory Concentration (M.I.C.)): 32 µg/mL (≈ 141 µM); MIC (Ent. cloacae A-9656; Enterobacter cloacae, A9656, Enterobacter cloacae A9656): 16 µg/mL (≈ 70.7 µM); MIC (Ps. aeruginosa A-21213; Pseudomonas aeruginosa, A21213, Pseudomonas aeruginosa A21213): > 63 µg/mL; MIC (Proteus rettgeri A21203; A21203, Proteus rettgeri A21203): 8 µg/mL (≈ 35.4 µM); MIC (Proteus vulgaris A21559): 16 µg/mL (≈ 70.7 µM) |
| CC1=C(C(=O)O)N2C(=O)C[C@H]2S1 [Preparation 2,3, 2-Methylpenem-3-carboxylic Acid] | – | – | – | – | – | 1 µg/mL (≈ 5.4 µM) | 32 µg/mL (≈ 173 µM) | – | – | > 125 µg/mL | – | – | – | – | – | > 125 µg/mL | 16 µg/mL (≈ 86.4 µM) | MIC [8]: 4 µg/mL (≈ 21.6 µM); ED50 (S. aureus A9606): > 50 mg/kg; ED50 (K. pneumoniae A15130): > 400 mg/kg; ED50 (S. pneumoniae A9585; 3 × 10^4 organisms): > 12.5 mg/kg; ED50 (S. pneumoniae A9585; 3.4 × 10^4 organisms): > 50 mg/kg; ED50 (S. pyogenes A9604; 1.2 × 10^3 organisms): > 50 mg/kg; ED50 (S. pyogenes A9604; 8 × 10^3 organisms): > 12.5 mg/kg; PD50 (S. aureus A9537; 1.1 × 10^6 organisms, listed as Prep. 2,3): 22 mg/kg/treatment; ED50 (S. aureus A9537; 1.1 × 10^6 organisms): 13 mg/kg; ED50 (S. aureus A9537; 7.8 × 10^5 organisms): 13 mg/kg |
| O=C(O)[C@H]1/C(=C/CO)O[C@@H]2CC(=O)N21 [clavulanic acid] | – | – | – | – | – | – | – | – | – | – | – | – | – | – | – | – | – | antibacterial activity [9]: low order of antibacterial activity; β-lactamase inhibition (β-lactamases): inhibits the action of certain β-lactamases; enhancement of activity of penicillins and cephalosporins [10]: enhances the in vitro and in vivo activity of some penicillins and cephalosporins |
